According to patent publication US9078871B2, “Estrogen receptor modulators and uses thereof” (SERAGON PHARMACEUTICALS, INC., priority 2010, dated 2015):
pIC50: −log10 of the molar value.

Key:
MCF-7 cells = assay: Breast Cancer Cell Viability Assay (MCF7 Viability Assay); assay type: cell-based; settings: 5 days' compound exposure, CellTiter-Glo; for pIC50: Homo sapiens, MCF7, 120 h
Description: MCF-7 cells were adjusted to a concentration of 20,000 cells per mL in RPMI containing 10% FBS and 20 mM HEPES. 16 microliters of the cell suspension (320 cells) was added to each well of a 384 well plate, and the cells were incubated overnight to allow the cells to adhere. The following day an eleven point, serial semilog dilution of each compound was added to the cells in 16 μL at a final concentration ranging from 0.3-0.000003 μM. After 5 days' compound exposure, 16 μL of CellTiter-GLo (Promega, Madison Wis.) was added to the cells the relative luminescence units (RLUs) of each well was determined. CellTiter-Glo added to 32 μL of medium without cells was used to obtain a background value. The Percent viability of each sample was determined as follows: (RLU sample-RLU background/RLU untreated cells-RLU background)×100=% viability.

ER-α = biological target: T1, ER-α (Homo sapiens, UniProt P03372); assay: ER-α in Cell Western Assay (SP1); assay type: cell-based; settings: MCF-7 cells, SP1 rabbit monoclonal Ab, 4 or 24 hr post compound addition, read-out: ER In-Cell Western Assay (SP1); for Emax: MCF7, Max Response; for DC50: IC50
T1 construct: endogenous in cells; host or cells: MCF-7
T1 sequence (P03372 1-595): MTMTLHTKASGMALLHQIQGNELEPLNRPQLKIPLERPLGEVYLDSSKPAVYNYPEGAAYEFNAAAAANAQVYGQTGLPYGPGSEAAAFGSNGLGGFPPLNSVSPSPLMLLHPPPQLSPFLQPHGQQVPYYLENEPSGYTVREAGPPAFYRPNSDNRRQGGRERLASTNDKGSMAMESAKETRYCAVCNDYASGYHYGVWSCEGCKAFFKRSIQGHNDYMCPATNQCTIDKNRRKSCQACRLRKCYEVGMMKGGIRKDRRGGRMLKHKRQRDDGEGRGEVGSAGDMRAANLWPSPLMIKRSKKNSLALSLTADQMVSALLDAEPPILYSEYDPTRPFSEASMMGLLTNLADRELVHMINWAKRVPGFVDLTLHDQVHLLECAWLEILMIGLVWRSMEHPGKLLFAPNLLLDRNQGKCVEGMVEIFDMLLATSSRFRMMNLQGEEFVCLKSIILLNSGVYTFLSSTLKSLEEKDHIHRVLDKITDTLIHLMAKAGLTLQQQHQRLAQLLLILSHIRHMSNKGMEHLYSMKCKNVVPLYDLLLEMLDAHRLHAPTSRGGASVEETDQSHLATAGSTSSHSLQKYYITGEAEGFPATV
Description: MCF-7 cells were adjusted to a concentration of 200,000 cells per mL in RPMI containing 10% charcoal-stripped FBS and 20 mM HEPES. 16 microliters of the cell suspension (3200 cells) was added to each well of a poly-D-lysine 384 well plate, and the cells were incubated overnight to allow the cells to adhere. The following day an eleven point, serial semilog dilution of each compound was added to the cells in 16 μL at a final concentration ranging from 0.3-0.000003 μM. At 4 or 24 hr post compound addition, the cells were fixed (10% formalin in PBS) for 20 minutes. Cells were permeabalized in PBS 0.1% Triton and blocked with LICOR blocking buffer (50 μl/well, 90′). The wells were then incubated overnight at 4° C. with SP1 rabbit monoclonal Ab (Thermo Scientific) diluted 1:1000 in LICOR blocking buffer/0.1% Tween-20. Wells which were treated with blocking buffer with Tween but no antibody were used as a background control. Wells were washed with 0.1% Tween-20/PBS and then incubated in goat anti-rabbit IRDye™ 800CW (LICOR Inc.; 1:1000) and DRAQ5 DNA dye (1:2000 for 2 mM stock) diluted in LICOR blocking buffer containing 0.1% Tween-20 and 0.01% SDS for 60 minutes. Cells were washed (50 μl/well, 5′ each) in 0.1% Tween-20/PBS. Plates were scanned on a LICOR Odyssey infrared imaging system. Integrated intensities in the 800 nm channel and 700 nm channel were measured to determine levels of ER and DNA respectively. Percent ER levels were determined as follows: (Integrated intensity 800 nm sample/integrated intensity 700 nm sample)/(Integrated intensity 800 nm untreated cells/integrated intensity 700 nm untreated cells)×100=% ER levels.

| SMILES | pIC50 (MCF-7 cells) | Emax (ER-α) [%] | DC50 (ER-α) [nM] | MCF7 Viability Assay Max Response (MCF-7 cells) |
| --- | --- | --- | --- | --- |
| CC1=C(c2cccc(O)c2C)C(c2ccc(OC[C@H](C)N3CC[C@@H](C)C3)cc2)Oc2ccc(O)cc21 (stereo partly drawn) [Example 40, 3-(3-Hydroxy-2-methylphenyl)-4-methyl-2-(4-((S)-2-((R)-3-methylpyrrolidin-1-yl)propoxy)phenyl)-2H-chromen-6-ol] | ≥ 9.00 | 60 to 85 | ≤ 1 | ++ (++ = a single % value ≧50%) |
| CC1=C(c2ccc(F)cc2)[C@H](c2ccc(OC[C@H](C)N3CC[C@@H](C)C3)cc2)Oc2ccc(O)cc21 (single isomer, unassigned) [Example 30a] | ≥ 9.00 | 60 to 85 | ≤ 1 | ++ (++ = a single % value ≧50%) |
| CC1=C(c2cccc(O)c2)C(c2ccc(OC[C@H](C)N3CC[C@@H](F)C3)cc2)Oc2ccc(O)cc21 (stereo partly drawn) [Example 64, 2-(4-((S)-2-((R)-3-Fluoropyrrolidin-1-yl)propoxy)phenyl)-3-(3-hydroxyphenyl)-4-methyl-2H-chromen-6-ol] | ≥ 9.00 | ≥ 85 | ≤ 1 | ++ (++ = a single % value ≧50%) |
| CC1=C(c2cc(O)cc(F)c2)C(c2ccc(OC[C@H](C)N3CC[C@@H](C)C3)cc2)Oc2ccc(O)cc21 (stereo partly drawn) [Example 43, 3-(3-Fluoro-5-hydroxyphenyl)-4-methyl-2-(4-((S)-2-((R)-3-methylpyrrolidin-1-yl)propoxy)phenyl)-2H-chromen-6-ol] | ≥ 9.00 | ≥ 85 | ≤ 1 | ++ (++ = a single % value ≧50%) |

Continued, in another order:

| pIC50 (MCF-7 cells) | Emax (ER-α) [%] | DC50 (ER-α) [nM] | SMILES | MCF7 Viability Assay Max Response (MCF-7 cells) |
| --- | --- | --- | --- | --- |
| ≥ 9.00 | ≥ 85 | ≤ 1 | CC1=C(c2cccc(O)c2)C(c2ccc(OC[C@H](C)N3CC[C@@H](C)C3)cc2)Oc2ccc(O)c(F)c21 (stereo partly drawn) [Example 61, 5-Fluoro-3-(3-hydroxyphenyl)-4-methyl-2-(4-((S)-2-((R)-3-methylpyrrolidin-1-yl)propoxy)phenyl)-2H-chromen-6-ol] | ++ (++ = a single % value ≧50%) |
| < 9.00 | 60 to 85 | > 1 | CC1=C(c2ccc(C(F)(F)F)c(O)c2)C(c2ccc(OC[C@H](C)N3CC[C@@H](C)C3)cc2)Oc2ccc(O)cc21 (stereo partly drawn) [Example 68, 3-(3-Hydroxy-4-(trifluoromethyl)phenyl)-4-methyl-2-(4-((S)-2-((R)-3-methylpyrrolidin-1-yl)propoxy)phenyl)-2H-chromen-6-ol] | ++ (++ = a single % value ≧50%) |
| ≥ 9.00 | 60 to 85 | ≤ 1 | CC1=C(c2ccc(F)cc2Cl)C(c2ccc(OC[C@H](C)N3CC[C@@H](C)C3)cc2)Oc2ccc(O)cc21 (stereo partly drawn) [Example 50, 3-(2-Chloro-4-fluorophenyl)-4-methyl-2-(4-((S)-2-((R)-3-methylpyrrolidin-1-yl)propoxy)phenyl)-2H-chromen-6-ol] | ++ (++ = a single % value ≧50%) |
| ≥ 9.00 | ≥ 85 | ≤ 1 | CC1=C(c2cc(O)c(F)c(F)c2)C(c2ccc(OC[C@H](C)N3CC[C@@H](C)C3)cc2)Oc2ccc(O)cc21 (stereo partly drawn) [Example 49, 3-(3,4-Difluoro-5-hydroxyphenyl)-4-methyl-2-(4-((S)-2-((R)-3-methylpyrrolidin-1-yl)propoxy)phenyl)-2H-chromen-6-ol] | ++ (++ = a single % value ≧50%) |
| ≥ 9.00 | 60 to 85 | ≤ 1 | CC1=C(c2cccc(O)c2)C(c2ccc(OC[C@H](C)n3cnc(C)c3)cc2)Oc2ccc(O)cc21 (stereo partly drawn) [Example 51, 3-(3-Hydroxyphenyl)-4-methyl-2-(4-((S)-2-(4-methyl-1H-imidazol-1-yl)propoxy)phenyl)-2H-chromen-6-ol] | ++ (++ = a single % value ≧50%) |
